Data on eight compounds can be found in patent publication US9884849B2, “Fluorinated benzofuranyl-pyrimidine derivatives containing a sulfoximine group” (Bayer Pharma Aktiengesellschaft, priority 2014, dated 2018).

Where two headings read alike, the source gives them in different places.

In one test the test system is Caco-2 cells. Put plainly: Proliferation assay Caco-2 (Method 3). It counts as cell-based, human. Conditions: Caco-2, 4 days, crystal violet, read-out: Inhibition of Caco-2 cell proliferation IC50. On the procedure:
(§1) Cultivated tumour cells (HeLa, human cervical tumour cells, ATCC CCL-2; NCI-H460, human non-small cell lung carcinoma cells, ATCC HTB-177; A2780, human ovarian carcinoma cells, ECACC #93112519; DU 145, hormone-independent human prostate carcinoma cells, ATCC HTB-81; HeLa-MaTu-ADR, multidrug-resistant human cervical carcinoma cells, EPO-GmbH Berlin; Caco-2, human colorectal carcinoma cells, ATCC HTB-37; B16F10, mouse melanoma cells, ATCC CRL-6475) were plated at a density of 5,000 cells/well (DU145, HeLa-MaTu-ADR), 3,000 cells/well (NCI-H460, HeLa), 2,500 cells/well (A2780), 1,500 cells/well (Caco-2), or 1,000 cells/well (B16F10) in a 96-well multititer plate in 200 μL of their respective growth medium supplemented 10% fetal calf serum. After 24 hours, the cells of one plate (zero-point plate) were stained with crystal violet (see below), while the medium of the other plates was replaced by fresh culture medium (200 μl), to which the test substances were added in various concentrations (0 μM, as well as in the range of 0.001-10 μM; the final concentration of the solvent dimethyl sulfoxide was 0.5%). The cells were incubated for 4 days in the presence of test substances. Cell proliferation was determined by staining the cells with crystal violet: the cells were fixed by adding 20 μl/measuring point of an 11% glutaric aldehyde solution for 15 minutes at room temperature. After three washing cycles of the fixed cells with water, the plates were dried at room temperature. The cells were stained by adding 100 μl/measuring point of a 0.1% crystal violet solution (pH 3.0). After three washing cycles of the stained cells with water, the plates were dried at room temperature. The dye was dissolved by adding 100 μl/measuring point of a 10% acetic acid solution. The extinction was determined by photometry at a wavelength of 595 nm. The change of cell number, in percent, was calculated by normalization of the measured values to the extinction values of the zero-point plate (=0%) and the extinction of the untreated (0 μm) cells (=100%). The IC50 values (inhibitory concentration at 50% of maximal effect) were determined by means of a 4 parameter fit.

Another test has as its system MOLM-13 cells. The experiment in a line: Proliferation assay MOLM-13 (Method 3). The test is classed as cell-based, human. Conditions: MOLM-13, 72-hour exposure, Cell Titre-Glo, read-out: Inhibition of MOLM-13 cell proliferation IC50. On the procedure: Non-adherent MOLM-13 human acute myeloid leukemia cells (DSMZ ACC 554) were seeded at a density of 5,000 cells/well in a 96-well multititer plate in 100 μL of growth medium supplemented 10% fetal calf serum. After 24 hours, cell viability of one plate (zero-point plate) was determined with the Cell Titre-Glo Luminescent Cell Viability Assay (Promega), while 50 μL of test compound containing medium was added to the wells of the other plates (final concentrations in the range of 0.001-10 μM and DMSO controls; the final concentration of the solvent dimethyl sulfoxide was 0.5%). Cell viability was assessed after 72-hour exposure with the Cell Titre-Glo Luminescent Cell Viability Assay (Promega). IC50 values (inhibitory concentration at 50% of maximal effect) were determined by means of a 4 parameter fit on measurement data which were normalized to vehicle (DMSO) treated cells (=100%) and measurement readings taken immediately before compound exposure (=0%).

In another test the target is T1, CDK9/CycT1 (Homo sapiens, UniProt P50750).
T1 construct: Recombinant full-length His-tagged human CDK9 and CycT1; His; purchased Invitrogen PV4131; host or cells: insect cells
The experiment in a line: CDK9/CycT1 kinase assay (Method 1a, TR-FRET). To be noted: 10 μM ATP; for Selectivity CDK9 over CDK2: IC50 (CDK2)/IC50 (CDK9): Methods 1a. and 2a. It counts as biochemical. The text has this: 1a. CDK9/CycT1 Kinase Assay:
CDK9/CycT1-Inhibitory Activity of Compounds of the Present Invention was Quantified Employing the CDK9/CycT1 TR-FRET Assay as Described in the Following Paragraphs:
Recombinant full-length His-tagged human CDK9 and CycT1, expressed in insect cells and purified by Ni-NTA affinity chromatography, were purchased from Invitrogen (Cat. No PV4131). As substrate for the kinase reaction biotinylated peptide biotin-Ttds-YISPLKSPYKISEG (C-terminus in amid form) was used which can be purchased e.g. form the company JERINI Peptide Technologies (Berlin, Germany). For the assay 50 nl of a 100 fold concentrated solution of the test compound in DMSO was pipetted into a black low volume 384 well microtiter plate (Greiner Bio-One, Frickenhausen, Germany), 2 μl of a solution of CDK9/CycT1 in aqueous assay buffer [50 mM Tris/HCl pH 8.0, 10 mM MgCl2, 1.0 mM dithiothreitol, 0.1 mM sodium ortho-vanadate, 0.01% (v/v) Nonidet-P40 (Sigma)] were added and the mixture was incubated for 15 min at 22° C. to allow pre-binding of the test compounds to the enzyme before the start of the kinase reaction. Then the kinase reaction was started by the addition of 3 μl of a solution of adenosine-tri-phosphate (ATP, 16.7 μM=>final conc. in the 5 μl assay volume is 10 μM) and substrate (1.67 μM=>final conc. in the 5 μl assay volume is 1 μM) in assay buffer and the resulting mixture was incubated for a reaction time of 25 min at 22° C. The concentration of CDK9/CycT1 was adjusted depending of the activity of the enzyme lot and was chosen appropriate to have the assay in the linear range, typical concentrations were in the range of 1 μg/mL. The reaction was stopped by the addition of 5 μl of a solution of TR-FRET detection reagents (0.2 μM streptavidine-XL665 [Cisbio Bioassays, Codolet, France] and 1 nM anti-RB(pSer807/pSer811)-antibody from BD Pharmingen [#558389] and 1.2 nM LANCE EU-W1024 labeled anti-mouse IgG antibody [Perkin-Elmer, product no. AD0077]) in an aqueous EDTA-solution (100 mM EDTA, 0.2% (w/v) bovine serum albumin in 100 mM HEPES/NaOH pH 7.0).
The resulting mixture was incubated 1 h at 22° C. to allow the formation of complex between the phosphorylated biotinylated peptide and the detection reagents. Subsequently the amount of phosphorylated substrate was evaluated by measurement of the resonance energy transfer from the Eu-chelate to the streptavidine-XL. Therefore, the fluorescence emissions at 620 nm and 665 nm after excitation at 350 nm was measured in a HTRF reader, e.g. a Rubystar (BMG Labtechnologies, Offenburg, Germany) or a Viewlux (Perkin-Elmer). The ratio of the emissions at 665 nm and at […] was taken as the measure for the amount of phosphorylated substrate. The data were normalised (enzyme reaction without inhibitor=0% inhibition, all other assay components but no enzyme=100% inhibition).
For orientation: Time-resolved FRET reads energy transfer from a long-lived donor to a nearby acceptor.

For the next test, the system named is DU145 cells. The experiment in a line: Proliferation assay DU145 (Method 3). To be noted: DU145, 4 days, crystal violet, read-out: Inhibition of DU145 cell proliferation IC50. The test is classed as cell-based, human. Here is the method:
as §1

T1 sequence (P50750 whole entry): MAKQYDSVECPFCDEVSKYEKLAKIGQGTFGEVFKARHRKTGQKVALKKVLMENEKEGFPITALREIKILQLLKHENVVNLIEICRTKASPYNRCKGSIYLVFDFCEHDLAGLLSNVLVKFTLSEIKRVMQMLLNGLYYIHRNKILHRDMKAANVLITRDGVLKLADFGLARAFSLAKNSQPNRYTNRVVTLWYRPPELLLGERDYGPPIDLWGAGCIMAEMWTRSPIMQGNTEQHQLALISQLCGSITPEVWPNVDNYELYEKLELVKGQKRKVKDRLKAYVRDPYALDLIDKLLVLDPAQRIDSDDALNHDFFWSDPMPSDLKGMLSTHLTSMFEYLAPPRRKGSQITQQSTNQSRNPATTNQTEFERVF
T1 sequence (O60563 whole entry partner): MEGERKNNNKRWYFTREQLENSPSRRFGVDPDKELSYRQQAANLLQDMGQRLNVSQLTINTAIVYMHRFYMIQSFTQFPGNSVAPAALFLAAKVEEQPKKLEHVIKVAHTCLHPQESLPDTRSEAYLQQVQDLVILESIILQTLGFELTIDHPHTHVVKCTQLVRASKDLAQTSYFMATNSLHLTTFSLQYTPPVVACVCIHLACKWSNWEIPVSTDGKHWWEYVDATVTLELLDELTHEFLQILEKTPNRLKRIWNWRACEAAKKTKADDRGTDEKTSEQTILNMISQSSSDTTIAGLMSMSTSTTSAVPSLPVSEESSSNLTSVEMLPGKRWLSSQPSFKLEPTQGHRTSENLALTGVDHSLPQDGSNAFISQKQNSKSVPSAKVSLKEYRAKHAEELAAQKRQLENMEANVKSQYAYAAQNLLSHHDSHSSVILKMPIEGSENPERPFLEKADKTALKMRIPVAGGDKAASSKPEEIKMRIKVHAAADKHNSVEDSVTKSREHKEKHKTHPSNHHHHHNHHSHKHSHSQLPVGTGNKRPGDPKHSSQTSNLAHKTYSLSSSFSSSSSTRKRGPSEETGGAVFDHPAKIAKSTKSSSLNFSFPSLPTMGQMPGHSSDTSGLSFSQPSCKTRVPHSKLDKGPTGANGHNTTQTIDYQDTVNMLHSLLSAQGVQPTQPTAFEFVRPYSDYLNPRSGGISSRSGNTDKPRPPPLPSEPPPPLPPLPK

With `Cc1cc(CS(C)(=O)=NC#N)cc(Nc2ncc(F)c(-c3ccc(F)c4ccoc34)n2)c1` (single isomer, unassigned) [Example 14, [(3-{[5-Fluoro-4-(4-fluoro-1-benzofuran-7-yl)pyrimidin-2-yl]amino}-5-methylbenzyl)-(methyl)oxido-λ^6-sulfanylidene]cyanamide], the IC50 in the test with Caco-2 cells (Homo sapiens, Caco-2, 96 h) was found to be 61 nM; in the test on MOLM-13 cells (Homo sapiens, MOLM-13, 72 h), 75 nM; on CDK9/CycT1, 4.4 nM; with DU145 cells (Homo sapiens, DU-145, 96 h), 66 nM. In addition, on CDK9/CycT1, the “Selectivity CDK9 over CDK2: IC50 (CDK2)/IC50 (CDK9)” value (“Selectivity CDK9 over CDK2: IC50” below) is 15.

For the compound `Cc1cc(CS(C)(=O)=NC#N)cc(Nc2ncc(F)c(-c3ccc(F)c4ccoc34)n2)c1` (single isomer, unassigned) [Example 15, [(3-{[5-Fluoro-4-(4-fluoro-1-benzofuran-7-yl)pyrimidin-2-yl]amino}-5-methylbenzyl)-(methyl)oxido-λ^6-sulfanylidene]cyanamide], the IC50 with Caco-2 cells came to 68 nM; with MOLM-13 cells it was 74 nM; against CDK9/CycT1 it was 2.4 nM; in the test on DU145 cells, 101 nM. The “Selectivity CDK9 over CDK2: IC50” value at CDK9/CycT1 is on record as 40.

On to `Cc1cc(CS(C)(=N)=O)cc(Nc2ncc(F)c(-c3ccc(F)c4ccoc34)n2)c1` (racemic) [Example 16, (rac)-5-Fluoro-4-(4-fluoro-1-benzofuran-7-yl)-N-{3-methyl-5-[(S-methylsulfonimidoyl)-methyl]phenyl}pyrimidin-2-amine], for which the IC50 with Caco-2 cells (Homo sapiens, Caco-2, 96 h) is 60 nM; with MOLM-13 cells (Homo sapiens, MOLM-13, 72 h), 33 nM; on CDK9/CycT1, 4.9 nM; in the test with DU145 cells (Homo sapiens, DU-145, 96 h) it was 106 nM. In addition, the “Selectivity CDK9 over CDK2: IC50” value at CDK9/CycT1 is on record as 16.

Regarding `CS(=O)(Cc1cccc(Nc2ncc(F)c(-c3ccc(F)c4ccoc34)n2)c1)=NC#N` (single isomer, unassigned) [Example 3, [(3-{[5-Fluoro-4-(4-fluoro-1-benzofuran-7-yl)pyrimidin-2-yl]amino}benzyl)(methyl)oxido-λ^6-sulfanylidene]cyanamide], the IC50 came out at 144 nM in the test with Caco-2 cells (Homo sapiens, Caco-2, 96 h); 47 nM with MOLM-13 cells (Homo sapiens, MOLM-13, 72 h); 3.3 nM against CDK9/CycT1; 105 nM in the test on DU145 cells (Homo sapiens, DU-145, 96 h). In addition, the “Selectivity CDK9 over CDK2: IC50” value on CDK9/CycT1 is on record as 14.

On to `CS(=O)(Cc1cc(F)cc(Nc2ncc(F)c(-c3ccc(F)c4ccoc34)n2)c1)=NC#N` (single isomer, unassigned) [Example 8, [(3-Fluoro-5-{[5-fluoro-4-(4-fluoro-1-benzofuran-7-yl)pyrimidin-2-yl]amino}benzyl)(methyl)-oxido-λ^6-sulfanylidene]cyanamide], for which the IC50 in the test on Caco-2 cells (Homo sapiens, Caco-2, 96 h) worked out at 43 nM; in the test on MOLM-13 cells (Homo sapiens, MOLM-13, 72 h), 34 nM; on CDK9/CycT1 it was 1.6 nM; in the test on DU145 cells (Homo sapiens, DU-145, 96 h), 34 nM. On CDK9/CycT1, the “Selectivity CDK9 over CDK2: IC50” value is on record as 39.

Consider `CS(=O)(Cc1cc(F)cc(Nc2ncc(F)c(-c3ccc(F)c4ccoc34)n2)c1)=NC#N` (racemic) [Example 7, (rac)-[(3-Fluoro-5-{[5-fluoro-4-(4-fluoro-1-benzofuran-7-yl)pyrimidin-2-yl]amino}benzyl)(methyl)-oxido-λ^6-sulfanylidene]cyanamide], for which the IC50 came out at 75 nM with Caco-2 cells (Homo sapiens, Caco-2, 96 h); 17 nM with MOLM-13 cells (Homo sapiens, MOLM-13, 72 h); 4.1 nM against CDK9/CycT1; 51 nM in the test with DU145 cells (Homo sapiens, DU-145, 96 h). The “Selectivity CDK9 over CDK2: IC50” value at CDK9/CycT1 was 14.

`CS(=O)(Cc1cccc(Nc2ncc(F)c(-c3ccc(F)c4ccoc34)n2)c1)=NC#N` (racemic) [Example 1, (rac)-[(3-{[5-Fluoro-4-(4-fluoro-1-benzofuran-7-yl)pyrimidin-2-yl]amino}benzyl)(methyl)oxido-λ^6-sulfanylidene]cyanamide]: the IC50 in the test with Caco-2 cells (Homo sapiens, Caco-2, 96 h) is 110 nM; in the test with MOLM-13 cells (Homo sapiens, MOLM-13, 72 h), 83 nM; against CDK9/CycT1 it was 2.3 nM; with DU145 cells (Homo sapiens, DU-145, 96 h), 112 nM. Besides, the “Selectivity CDK9 over CDK2: IC50” value at CDK9/CycT1 is given as 32.

Regarding `CS(=N)(=O)Cc1cc(Nc2ncc(F)c(-c3ccc(F)c4ccoc34)n2)cc(S(F)(F)(F)(F)F)c1` (racemic) [Example 18, (rac)-5-Fluoro-4-(4-fluoro-1-benzofuran-7-yl)-N-{3-[(S-methylsulfonimidoyl)methyl]-5-(pentafluoro-λ^6-sulfanyl)phenyl}pyrimidin-2-amine], the IC50 with Caco-2 cells (Homo sapiens, Caco-2, 96 h) came to 152 nM; in the test with MOLM-13 cells (Homo sapiens, MOLM-13, 72 h), 30 nM; against CDK9/CycT1 it was 2.9 nM; in the test with DU145 cells (Homo sapiens, DU-145, 96 h) it was 141 nM. The “Selectivity CDK9 over CDK2: IC50” value at CDK9/CycT1 is listed as 25.
